Test results taken from patent EP1656183B1, “TREATMENT OF MALE SEXUAL DYSFUNCTION” (Pfizer Limited, priority 2003, dated 2005).
pKi: −log10 of the molar value. Where two headings read alike, the source gives them in different places.

Columns and labels:
human V1A receptor = molecular target: T1, human V1A receptor (Homo sapiens, UniProt P37288); test: Ligand binding assay, [3H]-AVP binding to CHO-hV1A membranes
T1 construct: expressed in transfected cells; host or cells: CHO (CHO-hV1A cell line provided by Marc Thibonnier, Case Western Reserve University)
Description: Receptor binding assays were performed on cellular membranes prepared from CHO cells stably expressing the human V1A receptor, (CHO-hV1A). […] CHO-hV1A cells were routinely maintained at 37°C In humidified atmosphere with 5% CO2 in DMEM/Hams F12 nutrient mix supplemented with 10 % fetal bovine serum, 2 mM L-glutamine, 15 mM HEPES and 400 µg/ml G418. For bulk production of cell pellets, adherent CHO-hV1A cells were grown to confluency of 90-100% in 850 cm^2 roller bottles containing a medium of DMEM/Hams F12 Nutrient Mix supplemented with 10 % fetal bovine serum, 2 mM L-glutamine and 15 mM HEPES. Confluent CHO-hV1A cells were washed with phosphate-buffered saline (PBS), harvested into ice cold PBS and centrifuged at 1,000 rpm. Cell pellets were stored at -80°C until use. Cell pellets were thawed on ice and homogenised in membrane preparation buffer consisting of 50 mM Tris-HCI, pH 7.4, 5 mM MgCl2 and supplemented with a protease inhibitor cocktail, (Roche). The cell homogenate was centrifuged at 1000 rpm, 10 min, 4°C and the supernatant was removed and stored on ice. The remaining pellet was homogenised and centrifuged as before. The supernatants were pooled and centrifuged at 25,000 x g for 30 min at 4°C. The pellet was resuspended in freezing buffer consisting of 50 mM Tris-HCI, pH 7.4, 5 mM MgCl2 and 20 % glycerol and stored in small aliquots at -80°C until use. Protein concentration was determined using Bradford reagent and BSA as a standard.
Protein linearity followed by saturation binding studies were performed on each new batch of membrane. A membrane concentration was chosen that gave specific binding on the linear portion of the curve. […]
Compounds were tested for their effects on [^3H]-AVP binding to CHO-hV1A membranes, (^3H-AVP; specific activity 65.5 Ci/mmol; NEN Life Sciences). […] The plates were sealed and counted on a TopCount Microplate Scintillation Counter (Packard Instruments). Non-specific binding (NSB) was determined using 1 µM unlabelled d(CH2)5Tyr(Me)AVP ([β-mercapto-β,β-cyclopentamethylene-propionyl,0-Me-Tyr^2,Arg^8]-vasopressin) (βMCPVP), (Sigma). The radioligand binding data was analysed using a four parameter logistic equation with the min forced to 0%. […] Specific binding was calculated by subtracting the mean NSB cpm from the mean Total cpm. For test compounds the amount of ligand bound to the receptor was expressed as % bound = (sample cpm - mean NSB cpm)/specific binding cpm x100. […] The Inhibitory dissociation constant (Ki) was calculated using the Cheng-Prusoff equation: Ki=IC50/(1+[L]/Kd) where [L] is the concentration of ligand present in the well and Kd is the dissociation constant of the radioligand obtained from Scatchard plot analysis.

anaesthetised rats = test: p-chloroamphetamine (PCA)-induced ejaculation and penile erection in anaesthetised rats; type: in vivo, Male Sprague Dawley rats; details: for delay of p-chloroamphetamine (PCA)-induced ejaculation: vasopressin selective doses, plasma concentration of 9-31 nM; for Penile Cups / Penile Flares: % of PCA-induced erections
Description: In order to study penile erection and ejaculation the method used was based on the methodology taught in Yonezawa et al (2000) Life Sciences 67, 3031-3039. For ease of reference, this methodology is described below:
Male Sprague Dawley rats, weighing 350-450 g, are used. Prior to the experiments the animals are housed in groups (2 rats per cage) under controlled 12 h light-dark cycle (lights on at 07:00), constant temperature (23±1°C) and humidity (55±5%). They have free access to standard food pellets and water.
Rats are anesthestised with sodium pentobarbitone (50mg/kg, i.p.) and are placed in the supine position. The penis is extruded from its sheath and gently held by a wooden applicator positioned at the base of the penis. The test compounds are administered by intravenous infusion and p-chloroamphetamine (PCA) (5-10mg/kg) is administered i.p. immediately before the sheath retraction and the penile responses, including penile erection, redding and expansion of the penile body, glans erection, engorgement and slight flaring of the glans and cup, glans erection with Intense flaring of the glans, are recorded. Latencies from PCA administration to the initial penile response and ejaculation is also measured In seconds. […]

human Oxytocin receptor = molecular target: T2, human Oxytocin receptor (Homo sapiens, UniProt P30559); test: Oxytocin receptor binding assay (125I-OVT, SPA)
T2 construct: expressed in transfected cells; host or cells: CHO
T2 sequence (P30559 1-389): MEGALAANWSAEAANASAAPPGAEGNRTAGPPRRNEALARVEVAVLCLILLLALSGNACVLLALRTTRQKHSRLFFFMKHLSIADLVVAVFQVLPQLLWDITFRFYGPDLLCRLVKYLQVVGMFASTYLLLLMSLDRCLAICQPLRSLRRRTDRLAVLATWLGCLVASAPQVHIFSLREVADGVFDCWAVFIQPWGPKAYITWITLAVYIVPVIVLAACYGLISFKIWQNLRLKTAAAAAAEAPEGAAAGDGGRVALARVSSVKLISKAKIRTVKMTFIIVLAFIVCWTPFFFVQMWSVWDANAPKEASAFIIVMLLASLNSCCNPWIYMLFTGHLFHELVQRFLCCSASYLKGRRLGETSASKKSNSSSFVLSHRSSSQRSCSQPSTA
Description: As an example for a selectivity assay, an oxytocin receptor binding assay is described below.
CHO-cells engineered to express the human Oxytocin receptor are maintained, and membrane preparations from such cells are prepared according to standard techniques (see e.g. Example 2). They are diluted to 1 mg/ml protein concentration in assay buffer (50 mM Tris-HCl, pH7.8; 10 mM Mg Cl2; 0.25% BSA). SPA beads are resuspended at 50 mg/ml in assay buffer. From these concentrations, beads are pre-coupled with membranes by incubating 30 µg of protein per mg of bead on a top-to-tail shaker for 2 hours at 4 °C. The bead/membranes are then centrifuged at 2000 rpm for 10 mins and the pellet is resuspended at 3 mg/ml.
All manipulations of the ^125I-OVT (NEN, NEX254) are carried out using tips that have been silanised using SigmaCote. All bottles and tubes are also silanised. […] A 5 µl sample is then counted in duplicate using liquid scintillation counting (protocol 61 on Wallac Counter) and the concentration of the ligand is calculated. […] Using the measured concentration, the ^125I-OVT is diluted to 0.3 nM in assay buffer.
20 µl of the bead/membrane preparation is added to the prepared Optiplates using the Multi-drop, after the desired dilutions of test compounds are added to the wells. […] Following a 4 hour incubation at room temperature, the plates are counted using the TopCount NXT for 30s/well.

conscious rats = test: Copulatory behaviour in conscious rats (ejaculatory latency); type: in vivo; details: 0.05mgkg^-1 sc
Description: For all the sexual behavour tests, the male rats were placed in an observation arena (50-60 cm diameter), starting 5 hours into the dark cycle and observed under red ilumination. Three to four minutes after placing the male in the arena, a receptive female (ovariectomised, oestradiol benzoate / progesterone injection 48 hour before behavioural study) was Introduced into the arena and the following parameters noted: • i) ejaculatory latency (EJL; time taken from addition of receptive female into the arena to ejaculation); • ii) copulatory efficiency (CE; ejaculatory latency/ the number of intromissions to ejaculation, i.e. the number of seconds between intromissions); • iii) intromission frequency (IF; the number of intromissions to ejaculation); • iv) mount frequency (MF; the number of mounts to ejaculation); • v) post ejaculatory interval (PEI; the time taken from ejaculation to the commencement of copulatory behaviour).
Rodent copulatory behaviour is characterised by a series of mounts, with and without vaginal insertion (50-80% of mounts result in intromission [vaginal penetration]) and ejaculation occurs after 6 to 12 intromissions. Each intromission lasts a matter of seconds - it is not possible to quantify intromission length i.e. intravaginal latency. The effect of L-371257 was assessed on a number of copulatory parameters (see above). […]

[1] = Plasma concentration in the copulatory behaviour study; type: in vivo; details: 0.05mgkg^-1 sc, rats
[2] = plasma conc 30.9nM, listed as compound 1

T1 sequence (P37288 whole entry): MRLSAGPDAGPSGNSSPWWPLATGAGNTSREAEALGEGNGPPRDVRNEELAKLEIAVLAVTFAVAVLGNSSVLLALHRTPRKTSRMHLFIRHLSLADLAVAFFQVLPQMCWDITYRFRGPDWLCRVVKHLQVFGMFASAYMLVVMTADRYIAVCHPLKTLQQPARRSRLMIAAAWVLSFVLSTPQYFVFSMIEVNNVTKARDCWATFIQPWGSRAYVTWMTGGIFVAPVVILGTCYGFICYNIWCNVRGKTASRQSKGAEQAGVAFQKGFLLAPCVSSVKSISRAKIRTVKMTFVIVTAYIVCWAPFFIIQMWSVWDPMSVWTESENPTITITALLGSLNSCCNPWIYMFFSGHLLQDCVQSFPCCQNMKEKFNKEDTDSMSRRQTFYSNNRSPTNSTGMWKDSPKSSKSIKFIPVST

Structure (SMILES): COC1CCN(Cc2nnc(C3CCN(c4ccccn4)CC3)n2Cc2ccccc2)CC1 [Compound 1, 4-[4-Benzyl-5-(4-methoxy-piperldin-1-ylmethyl)-4H-[1,2,4]triazol-3-yl]-3,4,5,6-tetrahydro-2H-[1,2']bipyridinyl]
- pKi (human V1A receptor): 7.30
- selective towards vasopressin V1a receptors as compared with oxytocin receptors (human V1A receptor): more than 60 fold
- time taken for the rats to achieve erection (anaesthetised rats; anaesthetised rats, PCA-induced): not significantly affected
- Ejaculation was delayed (anaesthetised rats; anaesthetised rats, free plasma concentrations 30.9nM, near maximal effect): 100%
- delay of p-chloroamphetamine (PCA)-induced ejaculation (anaesthetised rats; anaesthetised rats): delays ejaculation
- delay of p-chloroamphetamine (PCA)-induced ejaculation (anaesthetised rats; anaesthetised rats, listed as compound 1): significantly delayed
- ejaculation and penile erection (anaesthetised rats; at both plasma conc 11.4nM and 30.9nM): * At both of these concentrations Compound 1 delayed ejaculation without affecting penile erection.
- Penile Cups (anaesthetised rats; plasma conc 11.4nM): 31.6%
- Penile Flares (anaesthetised rats; plasma conc 11.4nM): 81.5%
- Penile Cups (anaesthetised rats; plasma conc 30.9nM): 57.0%
- Penile Flares (anaesthetised rats; plasma conc 30.9nM): 83.6%
- Penile Cups (anaesthetised rats; [2]): 57%
- Penile Flares (anaesthetised rats; [2]): 84%
- pKi (human Oxytocin receptor; read-out: oxytocin receptors (OT; Ki OT)): 5.52

Structure (SMILES): COc1cc(OC2CCN(C(C)=O)CC2)ccc1C(=O)N1CCC(N2C(=O)OCc3ccccc32)CC1 [Compound L-371257, reference compound]
- selective towards oxytocin receptors as compared with vasopressin V1a receptors (human V1A receptor; as printed: OT vs V1a): more than 5 fold
- pKi (human V1A receptor; read-out: vasopressin V1a receptors (V1a; Ki V1a)): 8.43
- other effects on copulatory behaviour (conscious rats): no other significant effects
- Increased ejaculatory latency (conscious rats; P<0.05 versus vehicle): 67%
- Plasma conc [1]: L-371257 0.05mgkg^-1 sc Plasma conc ∼ 30nM
- pKi (human Oxytocin receptor; read-out: oxytocin receptors (OT)): 7.72
